In ChEMBL document CHEMBL4800727 (2021):

Assays:
[1] = target: 5-hydroxytryptamine receptor 2C (Homo sapiens, UniProt P28335); experiment: GPCRScan assay: inhibition of 5-HT2C; parameters: radioligand conc. used [nm] 1.0 – 2.5, parental cells HEK T
[2] = target: 5-hydroxytryptamine receptor 7 (Homo sapiens, UniProt P34969); experiment: GPCRScan assay: inhibition of 5-HT7A; parameters: radioligand conc. used [nm] 5.0 – 6.0, parental cells Stable HEK
[3] = target: CDK7/Cyclin H/MNAT1 (Homo sapiens) (UniProt P51946+P50613+P51948); experiment: Cyclin-dependent kinase 7 / cyclinH / MAT Millipore kinase panel; type: protein-complex assay; conditions: Compound concentration 10.0 uM
[4] = target: Ephrin type-A receptor 7 (Homo sapiens) (UniProt Q15375); experiment: EPH receptor A7 Millipore kinase panel; conditions: Compound concentration 10.0 uM
[5] = target: Tyrosine-protein kinase Fer (Homo sapiens) (UniProt P16591); experiment: fer (fps/fes related) tyrosine kinase Millipore kinase panel; conditions: Compound concentration 10.0 uM
[6] = target: Fibroblast growth factor receptor 3 (Homo sapiens) (UniProt P22607); experiment: fibroblast growth factor receptor 3 Millipore kinase panel; conditions: Compound concentration 10.0 uM
[7] = target: Glycogen synthase kinase-3 beta (Homo sapiens) (UniProt P49841); experiment: glycogen synthase kinase 3 beta Millipore kinase panel; conditions: Compound concentration 10.0 uM
[8] = target: Homeodomain-interacting protein kinase 3 (Homo sapiens) (UniProt Q9H422); experiment: homeodomain interacting protein kinase 3 Millipore kinase panel; conditions: Compound concentration 10.0 uM
[9] = target: Mitogen-activated protein kinase 8 (Homo sapiens) (UniProt P45983); experiment: mitogen-activated protein kinase 8 Millipore kinase panel; conditions: Compound concentration 10.0 uM
[10] = target: Dual specificity mitogen-activated protein kinase kinase 1 (Homo sapiens) (UniProt Q02750); experiment: mitogen-activated protein kinase kinase 1 Millipore kinase panel; conditions: Compound concentration 10.0 uM
[11] = target: Mitogen-activated protein kinase kinase kinase kinase 2 (Homo sapiens) (UniProt Q12851); experiment: mitogen-activated protein kinase kinase kinase kinase 2 Millipore kinase panel; conditions: Compound concentration 10.0 uM
[12] = target: BDNF/NT-3 growth factors receptor (Homo sapiens) (UniProt Q16620); experiment: neurotrophic tyrosine kinase, receptor, type 2 Millipore kinase panel; conditions: Compound concentration 10.0 uM
[13] = target: Serine/threonine-protein kinase Nek3 (Homo sapiens) (UniProt P51956); experiment: NIMA -related kinase 3 Millipore kinase panel; conditions: Compound concentration 10.0 uM
[14] = target: NUAK family SNF1-like kinase 1 (Homo sapiens) (UniProt O60285); experiment: NUAK family, SNF1-like kinase, 1 Millipore kinase panel; conditions: Compound concentration 10.0 uM
[15] = target: Serine/threonine-protein kinase PAK 5 (Homo sapiens) (UniProt Q9P286); experiment: p21 protein -activated kinase 5 Millipore kinase panel; conditions: Compound concentration 10.0 uM
[16] = target: Serine/threonine-protein kinase PAK 6 (Homo sapiens) (UniProt Q9NQU5); experiment: p21 protein -activated kinase 6 Millipore kinase panel; conditions: Compound concentration 10.0 uM
[17] = target: Phosphorylase b kinase gamma catalytic chain, liver/testis isoform (Homo sapiens) (UniProt P15735); experiment: phosphorylase kinase, gamma 2 Millipore kinase panel; conditions: Compound concentration 10.0 uM
[18] = target: Serine/threonine-protein kinase PLK2 (Homo sapiens) (UniProt Q9NYY3); experiment: polo-like kinase 2 Millipore kinase panel; conditions: Compound concentration 10.0 uM
[19] = target: Protein kinase C theta type (Homo sapiens) (UniProt Q04759); experiment: protein kinase C, theta Millipore kinase panel; conditions: Compound concentration 10.0 uM
[20] = target: Serine/threonine-protein kinase Sgk2 (Homo sapiens) (UniProt Q9HBY8); experiment: serum/glucocorticoid regulated kinase 2 Millipore kinase panel; conditions: Compound concentration 10.0 uM
[21] = target: Serine/threonine-protein kinase TBK1 (Homo sapiens) (UniProt Q9UHD2); experiment: TANK-binding kinase 1 Millipore kinase panel; conditions: Compound concentration 10.0 uM
[22] = target: Serine/threonine-protein kinase TAO3 (Homo sapiens) (UniProt Q9H2K8); experiment: TAO kinase 3 Millipore kinase panel; conditions: Compound concentration 10.0 uM
[23] = target: Testis-specific serine/threonine-protein kinase 1 (Homo sapiens) (UniProt Q9BXA7); experiment: testis-specific serine kinase 1B Millipore kinase panel; conditions: Compound concentration 10.0 uM
[24] = target: Dual 3',5'-cyclic-AMP and -GMP phosphodiesterase 11A (Homo sapiens, UniProt Q9HCR9); experiment: hPDE11A4 PDE scan
[25] = target: 5-hydroxytryptamine receptor 2A (Homo sapiens) (UniProt P28223); experiment: h5HT2A Cerep panel; conditions: Compound concentration 10.0 uM
[26] = target: Type-1 angiotensin II receptor (Homo sapiens) (UniProt P30556); experiment: hAT1 Cerep panel; conditions: Compound concentration 10.0 uM
[27] = target: Melanocortin receptor 4 (Homo sapiens) (UniProt P32245); experiment: hMC4 Cerep panel; conditions: Compound concentration 10.0 uM
[28] = target: 5-hydroxytryptamine receptor 1B (Rattus norvegicus) (UniProt P28564); experiment: r5HT1B Cerep panel; conditions: Compound concentration 10.0 uM
[29] = target: T1, Alpha-1B adrenergic receptor (Homo sapiens) (UniProt P35368); experiment: hAb1 Cerep panel; conditions: Compound concentration 10.0 uM
T1 sequence (whole entry): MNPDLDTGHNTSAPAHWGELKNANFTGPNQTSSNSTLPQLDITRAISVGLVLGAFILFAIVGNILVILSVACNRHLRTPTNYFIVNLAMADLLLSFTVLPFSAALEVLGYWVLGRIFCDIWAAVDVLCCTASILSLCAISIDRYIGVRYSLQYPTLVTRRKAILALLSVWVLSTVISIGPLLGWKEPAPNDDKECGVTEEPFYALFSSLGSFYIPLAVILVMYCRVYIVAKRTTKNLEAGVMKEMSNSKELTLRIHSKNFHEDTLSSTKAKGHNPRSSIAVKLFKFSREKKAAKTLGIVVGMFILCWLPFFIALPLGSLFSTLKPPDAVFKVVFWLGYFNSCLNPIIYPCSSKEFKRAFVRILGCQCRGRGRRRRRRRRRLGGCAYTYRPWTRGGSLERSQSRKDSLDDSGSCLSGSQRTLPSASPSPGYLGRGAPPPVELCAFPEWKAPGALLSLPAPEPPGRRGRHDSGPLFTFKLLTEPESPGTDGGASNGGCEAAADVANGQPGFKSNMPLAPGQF

Rattus norvegicus [30] = species: Rattus norvegicus; experiment: rBZD Cerep panel; conditions: Compound concentration 10.0 uM
[31] = target: Cannabinoid receptor 2 (Homo sapiens) (UniProt P34972); experiment: hCB2 Cerep panel; conditions: Compound concentration 10.0 uM
Rattus norvegicus [32] = species: Rattus norvegicus; experiment: rSLC6/GABA Cerep panel; conditions: Compound concentration 10.0 uM
[33] = glyine Cerep panel; conditions: Compound concentration 10.0 uM
Rattus norvegicus [34] = species: Rattus norvegicus; experiment: rGlutamate (ionotropic) MDL Cerep panel; conditions: Compound concentration 10.0 uM
[35] = target: T2, Muscarinic acetylcholine receptor M4 (Homo sapiens) (UniProt P08173); experiment: hM4 Cerep panel; conditions: Compound concentration 10.0 uM
T2 sequence (whole entry): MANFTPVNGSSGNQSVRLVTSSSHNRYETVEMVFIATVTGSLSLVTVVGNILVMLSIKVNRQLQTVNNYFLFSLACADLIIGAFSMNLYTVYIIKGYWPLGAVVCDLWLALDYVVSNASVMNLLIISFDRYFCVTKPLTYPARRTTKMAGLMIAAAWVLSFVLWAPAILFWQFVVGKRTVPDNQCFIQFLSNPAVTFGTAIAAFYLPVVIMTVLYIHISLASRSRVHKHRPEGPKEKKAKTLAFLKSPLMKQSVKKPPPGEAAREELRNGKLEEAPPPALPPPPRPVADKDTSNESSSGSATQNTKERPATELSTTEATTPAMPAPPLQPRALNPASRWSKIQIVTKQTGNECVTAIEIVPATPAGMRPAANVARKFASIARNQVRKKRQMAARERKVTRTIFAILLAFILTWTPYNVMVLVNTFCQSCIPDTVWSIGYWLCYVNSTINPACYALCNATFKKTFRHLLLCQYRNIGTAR

[36] = target: Androgen receptor (Homo sapiens) (UniProt P10275); experiment: hAR Cerep panel; conditions: Compound concentration 10.0 uM
[37] = target: Progesterone receptor (Homo sapiens) (UniProt P06401); experiment: hPR Cerep panel; conditions: Compound concentration 10.0 uM
[38] = target: Histamine H4 receptor (Homo sapiens) (UniProt Q9H3N8); conditions: Compound concentration 10.0 uM

Sequence of Serine/threonine-protein kinase TBK1 (Homo sapiens) (Q9UHD2 whole entry): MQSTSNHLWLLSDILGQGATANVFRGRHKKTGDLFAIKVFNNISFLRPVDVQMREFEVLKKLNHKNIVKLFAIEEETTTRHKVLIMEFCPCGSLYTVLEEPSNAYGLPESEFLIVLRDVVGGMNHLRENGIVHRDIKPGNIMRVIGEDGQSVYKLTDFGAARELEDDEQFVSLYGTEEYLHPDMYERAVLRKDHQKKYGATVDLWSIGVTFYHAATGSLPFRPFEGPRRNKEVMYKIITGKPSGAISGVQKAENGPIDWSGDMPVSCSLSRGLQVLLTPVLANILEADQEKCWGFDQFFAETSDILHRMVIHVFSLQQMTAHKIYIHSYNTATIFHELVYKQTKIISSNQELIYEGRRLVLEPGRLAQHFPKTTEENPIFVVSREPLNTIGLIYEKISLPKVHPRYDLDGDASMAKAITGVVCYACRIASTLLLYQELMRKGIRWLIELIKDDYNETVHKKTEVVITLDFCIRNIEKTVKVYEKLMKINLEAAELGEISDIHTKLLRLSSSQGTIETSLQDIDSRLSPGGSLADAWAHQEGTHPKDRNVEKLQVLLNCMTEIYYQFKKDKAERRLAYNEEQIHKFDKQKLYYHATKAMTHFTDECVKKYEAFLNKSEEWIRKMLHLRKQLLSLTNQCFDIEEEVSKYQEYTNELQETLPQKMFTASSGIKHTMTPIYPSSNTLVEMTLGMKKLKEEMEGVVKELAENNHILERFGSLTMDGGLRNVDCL
Sequence of Protein kinase C theta type (Homo sapiens) (Q04759 whole entry, looked up): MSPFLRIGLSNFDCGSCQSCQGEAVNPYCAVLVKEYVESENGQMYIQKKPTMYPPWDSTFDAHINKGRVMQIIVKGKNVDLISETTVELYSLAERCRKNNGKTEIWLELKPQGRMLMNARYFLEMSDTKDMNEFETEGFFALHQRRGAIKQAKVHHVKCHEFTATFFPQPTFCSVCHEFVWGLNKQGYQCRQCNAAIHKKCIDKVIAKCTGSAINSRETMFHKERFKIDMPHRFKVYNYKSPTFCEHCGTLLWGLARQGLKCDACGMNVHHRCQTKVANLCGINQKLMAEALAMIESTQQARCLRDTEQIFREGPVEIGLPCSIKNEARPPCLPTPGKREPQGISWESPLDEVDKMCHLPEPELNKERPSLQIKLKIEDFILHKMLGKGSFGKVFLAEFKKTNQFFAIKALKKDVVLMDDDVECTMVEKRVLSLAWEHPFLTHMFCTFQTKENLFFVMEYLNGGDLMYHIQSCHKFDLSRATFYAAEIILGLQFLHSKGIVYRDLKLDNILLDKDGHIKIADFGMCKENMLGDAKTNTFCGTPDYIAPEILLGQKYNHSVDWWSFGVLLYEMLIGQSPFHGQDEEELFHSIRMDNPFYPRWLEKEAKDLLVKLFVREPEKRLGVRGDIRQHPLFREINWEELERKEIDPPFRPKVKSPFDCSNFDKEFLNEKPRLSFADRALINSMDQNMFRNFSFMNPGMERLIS
Sequence of Serine/threonine-protein kinase PAK 6 (Homo sapiens) (Q9NQU5 whole entry, looked up, canonical isoform): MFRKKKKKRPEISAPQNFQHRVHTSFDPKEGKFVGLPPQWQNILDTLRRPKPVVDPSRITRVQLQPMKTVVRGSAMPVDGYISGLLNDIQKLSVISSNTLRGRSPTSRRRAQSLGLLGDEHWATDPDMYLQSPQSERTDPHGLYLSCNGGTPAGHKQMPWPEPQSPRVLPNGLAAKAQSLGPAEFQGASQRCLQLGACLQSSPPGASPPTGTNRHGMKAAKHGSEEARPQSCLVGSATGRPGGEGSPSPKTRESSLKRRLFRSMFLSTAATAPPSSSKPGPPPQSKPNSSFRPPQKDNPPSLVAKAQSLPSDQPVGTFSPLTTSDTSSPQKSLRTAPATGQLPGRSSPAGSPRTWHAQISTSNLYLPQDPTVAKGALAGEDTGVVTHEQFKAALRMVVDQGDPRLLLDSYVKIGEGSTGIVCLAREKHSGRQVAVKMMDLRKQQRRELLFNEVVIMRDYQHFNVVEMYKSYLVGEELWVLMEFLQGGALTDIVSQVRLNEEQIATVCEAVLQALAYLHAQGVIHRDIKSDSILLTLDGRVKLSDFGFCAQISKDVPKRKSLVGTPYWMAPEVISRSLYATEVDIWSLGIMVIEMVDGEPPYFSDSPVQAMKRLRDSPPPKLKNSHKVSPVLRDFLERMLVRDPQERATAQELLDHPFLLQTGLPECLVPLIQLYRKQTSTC
Sequence of Tyrosine-protein kinase Fer (Homo sapiens) (P16591 whole entry, looked up): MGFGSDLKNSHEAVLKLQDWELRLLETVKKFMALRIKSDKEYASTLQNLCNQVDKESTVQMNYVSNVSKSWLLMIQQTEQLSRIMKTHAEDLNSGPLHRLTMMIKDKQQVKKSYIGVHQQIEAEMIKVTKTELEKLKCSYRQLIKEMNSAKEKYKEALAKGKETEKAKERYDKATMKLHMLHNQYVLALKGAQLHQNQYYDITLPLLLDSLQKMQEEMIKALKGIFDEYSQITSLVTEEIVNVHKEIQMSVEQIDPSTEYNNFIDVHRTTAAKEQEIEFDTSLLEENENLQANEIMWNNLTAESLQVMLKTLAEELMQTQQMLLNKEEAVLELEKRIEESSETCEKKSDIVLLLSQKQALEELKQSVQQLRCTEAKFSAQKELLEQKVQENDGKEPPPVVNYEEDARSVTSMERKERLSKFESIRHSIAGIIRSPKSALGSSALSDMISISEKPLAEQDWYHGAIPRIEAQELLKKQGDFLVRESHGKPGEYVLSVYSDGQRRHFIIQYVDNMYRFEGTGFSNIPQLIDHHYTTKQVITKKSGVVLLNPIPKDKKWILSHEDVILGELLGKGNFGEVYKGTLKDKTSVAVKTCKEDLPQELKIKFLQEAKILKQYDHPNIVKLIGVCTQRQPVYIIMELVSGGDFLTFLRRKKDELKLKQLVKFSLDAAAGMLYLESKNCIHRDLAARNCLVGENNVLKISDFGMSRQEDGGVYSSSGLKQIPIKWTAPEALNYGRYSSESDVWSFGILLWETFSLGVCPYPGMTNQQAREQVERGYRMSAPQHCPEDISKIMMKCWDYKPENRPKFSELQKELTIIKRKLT
Sequence of Androgen receptor (Homo sapiens) (P10275 whole entry): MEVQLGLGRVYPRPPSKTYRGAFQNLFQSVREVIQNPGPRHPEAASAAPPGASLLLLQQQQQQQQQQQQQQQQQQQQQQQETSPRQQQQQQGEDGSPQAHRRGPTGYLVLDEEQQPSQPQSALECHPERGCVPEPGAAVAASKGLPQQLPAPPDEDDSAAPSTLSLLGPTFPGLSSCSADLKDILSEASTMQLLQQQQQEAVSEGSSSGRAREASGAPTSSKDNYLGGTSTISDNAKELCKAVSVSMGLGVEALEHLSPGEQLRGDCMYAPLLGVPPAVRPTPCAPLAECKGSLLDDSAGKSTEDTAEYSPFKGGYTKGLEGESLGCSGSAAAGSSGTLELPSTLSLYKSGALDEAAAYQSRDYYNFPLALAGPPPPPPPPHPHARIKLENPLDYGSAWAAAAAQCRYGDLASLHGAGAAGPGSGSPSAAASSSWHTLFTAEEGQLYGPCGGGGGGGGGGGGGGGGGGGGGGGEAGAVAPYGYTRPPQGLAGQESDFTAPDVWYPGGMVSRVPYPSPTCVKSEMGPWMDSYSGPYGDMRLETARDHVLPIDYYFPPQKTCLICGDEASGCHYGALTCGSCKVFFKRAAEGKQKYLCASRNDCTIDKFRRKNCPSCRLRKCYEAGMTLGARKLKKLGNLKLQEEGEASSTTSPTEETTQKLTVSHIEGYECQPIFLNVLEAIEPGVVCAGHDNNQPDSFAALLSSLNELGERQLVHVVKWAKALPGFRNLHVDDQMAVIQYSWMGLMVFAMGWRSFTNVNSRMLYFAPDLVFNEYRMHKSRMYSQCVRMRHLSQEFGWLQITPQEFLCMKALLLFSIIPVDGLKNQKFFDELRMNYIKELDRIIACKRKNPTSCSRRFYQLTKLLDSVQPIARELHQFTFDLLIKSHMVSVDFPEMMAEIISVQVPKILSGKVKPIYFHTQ
Sequence of Mitogen-activated protein kinase 8 (Homo sapiens) (P45983 whole entry): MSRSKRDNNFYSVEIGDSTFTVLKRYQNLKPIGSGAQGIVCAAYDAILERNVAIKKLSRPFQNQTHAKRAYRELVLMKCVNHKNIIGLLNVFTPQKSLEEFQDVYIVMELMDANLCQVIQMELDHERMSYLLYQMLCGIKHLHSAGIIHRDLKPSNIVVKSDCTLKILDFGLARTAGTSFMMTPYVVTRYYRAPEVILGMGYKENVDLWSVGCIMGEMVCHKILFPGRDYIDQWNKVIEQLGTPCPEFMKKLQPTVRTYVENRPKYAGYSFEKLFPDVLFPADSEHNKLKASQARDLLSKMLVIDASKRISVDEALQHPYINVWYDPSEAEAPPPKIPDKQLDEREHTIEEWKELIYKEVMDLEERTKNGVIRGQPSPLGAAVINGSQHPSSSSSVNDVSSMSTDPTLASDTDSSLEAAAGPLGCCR
Sequence of Fibroblast growth factor receptor 3 (Homo sapiens) (P22607 23-806 limits assumed): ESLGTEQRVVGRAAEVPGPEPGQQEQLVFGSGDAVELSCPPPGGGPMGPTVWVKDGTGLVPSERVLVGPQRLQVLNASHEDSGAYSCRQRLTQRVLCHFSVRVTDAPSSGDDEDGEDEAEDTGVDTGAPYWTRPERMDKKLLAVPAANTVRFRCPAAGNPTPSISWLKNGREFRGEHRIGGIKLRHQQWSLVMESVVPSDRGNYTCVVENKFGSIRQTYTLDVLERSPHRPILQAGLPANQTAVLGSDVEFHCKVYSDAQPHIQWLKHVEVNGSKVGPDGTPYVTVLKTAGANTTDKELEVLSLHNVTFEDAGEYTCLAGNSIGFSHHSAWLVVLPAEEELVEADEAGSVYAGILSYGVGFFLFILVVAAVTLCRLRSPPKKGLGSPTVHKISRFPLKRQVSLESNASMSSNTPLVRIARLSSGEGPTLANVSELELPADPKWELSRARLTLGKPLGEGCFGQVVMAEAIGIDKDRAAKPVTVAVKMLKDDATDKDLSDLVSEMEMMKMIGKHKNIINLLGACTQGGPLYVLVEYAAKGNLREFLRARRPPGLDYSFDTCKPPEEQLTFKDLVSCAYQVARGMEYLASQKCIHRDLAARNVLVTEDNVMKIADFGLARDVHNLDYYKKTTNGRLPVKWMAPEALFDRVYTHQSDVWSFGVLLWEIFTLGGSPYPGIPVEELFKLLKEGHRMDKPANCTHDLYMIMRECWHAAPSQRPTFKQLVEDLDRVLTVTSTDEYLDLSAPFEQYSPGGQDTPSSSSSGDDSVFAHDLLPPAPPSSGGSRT

COCCc1ccc(-c2c(C)nc3c(N4CCOCC4)ccnn23)cn1 [JNJ-42396302]
Ki [1]: 2.2 µM
Ki [2]: 8.74 µM
inhibition [3]: 1%
inhibition [4]: 0%
inhibition [5]: 0%
inhibition [6]: -2%
inhibition [7]: -1%
inhibition [8]: -6%
inhibition [9]: -3%
inhibition [10]: -1%
inhibition [11]: -5%
inhibition [12]: -5%
inhibition [13]: 4%
inhibition [14]: 7%
inhibition [15]: 7%
inhibition [16]: 5%
inhibition [17]: -3%
inhibition [18]: -7%
inhibition [19]: 2%
inhibition [20]: -3%
inhibition [21]: -3%
inhibition [22]: 0%
inhibition [23]: 2%
Ki [24]: 46 µM
effect [25]: 4.05%
effect [26]: 14.4%
effect [27]: 6.35%
effect [28]: -2.55%
effect [29]: 6.55%
effect (Rattus norvegicus [30]): 41.5%
effect [31]: 6.1%
effect (Rattus norvegicus [32]): -6%
effect [33]: -23.1%
effect (Rattus norvegicus [34]): -6.2%
effect [35]: -3.05%
effect [36]: -13.8%
effect [37]: 13.5%
inhibition [38]: -1.08%
